# From patent US7045515B2, “β-lactam compounds process for reproducing the same and serum cholesterol-lowering agents containing the same” (Kotobuki Pharmaceutical Co., Ltd., priority 2001, dated 2006)
row,SMILES,melting point [°C]
1,"CCOC(=O)C(C)(C)Oc1ccc(N2C(=O)[C@H](CCCc3ccc(C)cc3)[C@H]2c2ccc(C[C@@H]3O[C@H](CO)[C@@H](O)[C@H](O)[C@H]3O)cc2)cc1 (relative stereo) [Compound 20, 2-{4-[(4S*,3R*)-4-{[(5S,2R,3R,4R,6R)-3,4,5-Trihydroxy-6-(hydroxymethyl)perhydro-2H-pyran-2-yl]methyl}phenyl-3-[3-(4-methylphenyl)propyl]-2-oxoazetidinyl]phenoxy}-2-methylpropionic acid ethyl ester]",76 to 78
2,"Cc1ccc(CCC[C@H]2C(=O)N(c3ccc(OC(C)(C)C(=O)O)cc3)[C@@H]2c2ccc(C[C@@H]3O[C@H](CO)[C@@H](O)[C@H](O)[C@H]3O)cc2)cc1 (relative stereo) [Compound 21, 2-{4-[(4S*,3R*)-4-{[(5S,2R,3R,4R,6R)-3,4,5-Trihydroxy-6-(hydroxymethyl)perhydro-2H-pyran-2-yl]methyl}phenyl-3-[3-(4-methylphenyl)propyl]-2-oxoazetidinyl]phenoxy}-2-methylpropionic acid]",161 to 162
3,"O=C1[C@H](CCCc2ccc(F)cc2)[C@H](c2ccc(CC3O[C@H](CO)[C@@H](O)[C@H](O)[C@H]3O)cc2)N1c1ccc(F)cc1 (relative stereo) [Compound 40, (4R*,3R*)-4-(4-{[(5S,2R,3R,4R,6R)-3,4,5-Trihydroxy-6-(hydroxymethyl)perhydro-2H-pyran-2-yl]methyl}phenyl)-3-[3-(4-fluorophenyl)propyl]-1-(4-fluorophenyl)azetidine-2-one]",78 to 80
4,"O=C1[C@H](CCCc2ccc(F)cc2)[C@@H](c2ccc(CC3O[C@H](CO)[C@@H](O)[C@H](O)[C@H]3O)cc2)N1c1ccc(F)cc1 (stereo in doubt) [Compound 25, (4S,3R)-4-(4-{[(5S,2R,3R,4R,6R)-3,4,5-Trihydroxy-6-(hydroxymethyl)perhydro-2H-pyran-2-yl)methyl}phenyl)-1-(4-fluorophenyl)-3-[3-(4-fluorophenyl)propyl]azetidine-2-one]",67 to 69
5,"O=C1[C@H](CC[C@H](O)c2ccc(F)cc2)[C@@H](c2ccc(C[C@@H]3O[C@H](CO)[C@@H](O)[C@H](O)[C@H]3O)cc2)N1c1ccc(F)cc1 [Compound 22, (4S,3R)-3-[(3S)-3-(4-Fluorophenyl)-3-hydroxypropyl]-4-(4-{[(2S,5S,3R,4R,6R)-3,4,5-trihydroxy-6-(hydroxymethyl)perhydro-2H-pyran-2-yl]methyl}phenyl)-1-(4-fluorophenyl)azetidine-2-one]",115 to 117
6,"O=C(CC[C@H]1C(=O)N(c2ccc(F)cc2)[C@@H]1c1ccc(C[C@@H]2O[C@H](CO)[C@@H](O)[C@H](O)[C@H]2O)cc1)c1ccc(F)cc1 [Compound 26, (4S,3R)-4-(4-{[(2S,5S,3R,4R,6R)-3,4,5-Trihydroxy-6-(hydroxymethyl)perhydro-2H-pyran-2-yl]methyl}phenyl)-1-(4-fluorophenyl)-3-[3-(4-fluorophenyl)-3-oxopropyl]azetidine-2-one]",78 to 80
7,"O=C(CC[C@H]1C(=O)N(c2ccccc2)[C@@H]1c1ccc(C[C@@H]2O[C@H](CO)[C@@H](O)[C@H](O)[C@H]2O)cc1)c1ccc(F)cc1 [Compound 27, (4S,3R)-4-(4-{[(2S,5S,3R,4R,6R)-3,4,5-Trihydroxy-6-(hydroxymethyl)perhydro-2H-pyran-2-yl]methyl}phenyl)-1-phenyl-3-[3-(4-fluorophenyl)-3-oxopropyl]azetidine-2-one]",104 to 106
8,"O=C(O)c1ccc(N2C(=O)[C@H](CC[C@H](O)c3ccc(F)cc3)[C@H]2c2ccc(C[C@@H]3O[C@H](CO)[C@@H](O)[C@H](O)[C@H]3O)cc2)cc1 [Compound 29, 4-[(4S,3R)-3-[(3S)-3-(4-Fluorophenyl)-3-hydroxypropyl]-4-(4-{[(2S,5S,3R,4R,6R)-3,4,5-trihydroxy-6-(hydroxymethyl)perhydro-2H-pyran-2-yl]methyl}phenyl)-2-oxoazetidinyl]benzoic acid]",148 to 150
9,"O=C(O)c1ccc(N2C(=O)[C@H](CCC(=O)c3ccc(F)cc3)[C@H]2c2ccc(C[C@@H]3O[C@H](CO)[C@@H](O)[C@H](O)[C@H]3O)cc2)cc1 [Compound 30, 4-[(4S,3R)-4-(4-{[(2S,5S,3R,4R,6R)-3,4,5-Trihydroxy-6-(hydroxymethyl)perhydro-2H-pyran-2-yl]methyl}phenyl)-3-[3-(4-fluorophenyl)-3-oxopropyl]-2-oxoazetidinyl]benzoic acid]",102 to 104
10,"O=C(O)c1ccc(N2C(=O)[C@H](CCCc3ccc(F)cc3)[C@H]2c2ccc(C[C@@H]3O[C@H](CO)[C@@H](O)[C@H](O)[C@H]3O)cc2)cc1 [Compound 31, 4-[(4S,3R)-4-(4-{[(2S,5S,3R,4R,6R)-3,4,5-Trihydroxy-6-(hydroxymethyl)perhydro-2H-pyran-2-yl]methyl}phenyl)-3-[3-(4-fluorophenyl)propyl]-2-oxoazetidinyl]benzoic acid]",97 to 99
11,O=C(CC[C@H]1C(=O)N(c2ccc(F)cc2)[C@@H]1c1ccc([C@@H]2O[C@H](CO)[C@@H](O)[C@H](O)[C@H]2O)cc1)c1ccc(F)cc1 [Compound 34],83 to 85
12,O=C1[C@H](CC[C@H](O)c2ccc(F)cc2)[C@@H](c2ccc([C@@H]3O[C@H](CO)[C@@H](O)[C@H](O)[C@H]3O)cc2)N1c1ccc(F)cc1 [Compound 35],81 to 83
13,Cc1ccc(N2C(=O)[C@H](CC[C@H](O)c3ccc(F)cc3)[C@H]2c2ccc([C@@H]3O[C@H](CO)[C@@H](O)[C@H](O)[C@H]3O)cc2)cc1 [Compound 36],79 to 81

# Next, values leading:
row,melting point [°C],SMILES
1,110 to 112,"O=C1[C@H](CC[C@H](O)c2ccccc2)[C@@H](c2ccc(C[C@@H]3O[C@H](CO)[C@@H](O)[C@H](O)[C@H]3O)cc2)N1c1ccccc1 [Compound 41, 3-((3S)-3-Hydroxy-3-phenylpropyl)(4S,3R)-4-(4-{[(2S,5S,3R,4R,6R)-3,4,5-trihydroxy-6-(hydroxymethyl)perhydro-2H-pyran-2-yl]methyl}phenyl)-1-phenylazetidine-2-one]"
2,56 to 58,"CCOC(=O)c1ccc(N2C(=O)[C@H](CC[C@H](O)c3ccc(F)cc3)[C@H]2c2ccc(C[C@@H]3O[C@H](CO)[C@@H](O)[C@H](O)[C@H]3O)cc2)cc1 [Compound 42, 4-[3-((3S)-3-(4-Fluorophenyl)-3-hydroxypropyl](4S,3R)-4-(4-{[(2S,5S,3R,4R,6R)-3,4,5-trihydroxy-6-(hydroxymethyl)perhydro-2H-pyran-2-yl]methyl}phenyl)-2-oxoazetidinyl]benzoic acid ethyl ester]"
3,96 to 98,"Cc1ccc(N2C(=O)[C@H](CCOc3ccc(F)cc3)[C@H]2c2ccc(C[C@@H]3O[C@H](CO)[C@@H](O)[C@H](O)[C@H]3O)cc2)cc1 [Compound 43, 4-(4-{[(5S,2R,3R,4R,6R)-3,4,5-Trihydroxy-6-(hydroxymethyl)perhydro-2H-pyran-2-yl]methyl}phenyl)(4S,3R)-1-(4-methylphenyl)-3-[3-(4-fluorophenoxy)ethyl]azetidine-2-one]"
4,84 to 86,"O=C1[C@H](CCCc2ccccc2)[C@@H](c2ccc(C[C@@H]3O[C@H](CO)[C@@H](O)[C@H](O)[C@H]3O)cc2)N1c1ccccc1 [Compound 44, 3-(3-Phenylpropyl)(4S,3R)-4-(4-{[(5S,3R,4R,6R)-3,4,5-trihydroxy-6-(hydroxymethyl)perhydro-2H-pyran-2-yl]methyl}phenyl)-1-phenylazetidine-2-one]"
5,72 to 74,O=C1[C@H](CC[C@H](O)c2ccc(F)cc2)[C@@H](c2ccc(/C=C/C[C@@H]3O[C@H](CO)[C@@H](O)[C@H](O)[C@H]3O)cc2)N1c1ccc(F)cc1 [Compound 47]
6,81 to 83,O=C1[C@H](CC[C@H](O)c2ccc(F)cc2)[C@@H](c2ccc(CCC[C@@H]3O[C@H](CO)[C@@H](O)[C@H](O)[C@H]3O)cc2)N1c1ccc(F)cc1 [Compound 48]
7,61 to 63,O=C1[C@H](CC[C@H](O)c2ccc(F)cc2)[C@@H](c2ccc(CCCOC[C@@H]3O[C@H](CO)[C@@H](O)[C@H](O)[C@H]3O)cc2)N1c1ccc(F)cc1 [Compound 50]
8,65 to 67,O=C1[C@H](CC[C@H](O)c2ccc(F)cc2)[C@@H](c2ccc(/C=C/COC[C@@H]3O[C@H](CO)[C@@H](O)[C@H](O)[C@H]3O)cc2)N1c1ccc(F)cc1 [Compound 51]
9,79 to 81,O=C1[C@H](CC[C@H](O)c2ccc(F)cc2)[C@@H](c2ccc(/C=C/CC[C@@H]3O[C@H](CO)[C@@H](O)[C@H](O)[C@H]3O)cc2)N1c1ccc(F)cc1 [Compound 52]
10,81 to 83,O=C1[C@H](CC[C@H](O)c2ccc(F)cc2)[C@@H](c2ccc(CCCC[C@@H]3O[C@H](CO)[C@@H](O)[C@H](O)[C@H]3O)cc2)N1c1ccc(F)cc1 [Compound 53]
11,69 to 71,O=C1[C@H](CC[C@H](O)c2ccc(F)cc2)[C@@H](c2ccc(/C=C/CCC[C@@H]3O[C@H](CO)[C@@H](O)[C@H](O)[C@H]3O)cc2)N1c1ccc(F)cc1 [Compound 54]
12,66 to 68,O=C1[C@H](CC[C@H](O)c2ccc(F)cc2)[C@@H](c2ccc(CCCCC[C@@H]3O[C@H](CO)[C@@H](O)[C@H](O)[C@H]3O)cc2)N1c1ccc(F)cc1 [Compound 55]
13,110 to 112,O=C(O)[C@H]1O[C@@H](CCc2ccc([C@@H]3[C@@H](CC[C@H](O)c4ccc(F)cc4)C(=O)N3c3ccccc3)cc2)[C@H](O)[C@@H](O)[C@@H]1O [Compound 58]
